Values quoted from earlier work in patent US20100331420A1, “Combination Therapies for the Treatment of Obesity” (priority 2009, published 2010).

Conditions: published studies of each weight loss medication

SMILES | weight loss of body weight for drug compared with placebo
CCN[C@@H](C)Cc1cccc(C(F)(F)F)c1 [dexfenfluramine] | about 5%
CCCCCCCCCCC[C@@H](C[C@@H]1OC(=O)[C@H]1CCCCCC)OC(=O)[C@H](CC(C)C)NC=O [orlistat] | about 5%
CC(C)CC(N(C)C)C1(c2ccc(Cl)cc2)CCC1 (stereo not drawn) [sibutramine] | about 5%
